Results on 3 molecules are retold here after patent US7700587B2, “Haloperidol analogs” (Florida A&M University, priority 2004, dated 2010).

For one series, the system named is Swiss male mice. In words: Apomorphine induced climbing-stereotypy. Particulars: for inhibition of apomorphine induced climbing (dopamine receptor antagonist in vivo): intraperitoneal, apomorphine challenge. The class given is in vivo.
For a further series, the system named is Male SD rats. In words: Bar test for catalepsy. The class given is in vivo. The note with it: for statistical comparison of effects in catalepsy bar test (t-test, p<0.05): all four doses; for catalepsy (EPS) in bar test: subcutaneous, at the doses used. How it is done: Bar test for catalepsy: A modified bar test by Needham et al, supra was used. […] Catalepsy severity was assessed immediately at various time points (15, 30, 45, 60, and 90 min) post injection, by scoring how long the rat maintained both forepaws motionless on a horizontal metal bar (1.1 cm in diameter, 10 cm above the bench top in a box). A score of 1 was given for every 5 seconds (2 min. maximum) the animal remained on the bar. Mean scores from 5 animals per time point were recorded for catalepsy and plotted in FIG. 2.
Statistical analysis: The student t-test was used to compare the three compounds used in the animal behavioral tests. Results were considered significant at p<0.05.

With `O=C(CCCN1CCC(O)(c2ccc(Cl)cc2)C1)c1ccc(F)cc1` (racemic) [Analog [A] (2), 4-[3-hydroxy-3-(4′-chlorophenyl)pyrrolidinyl]-4″-fluorobutyrophenone], the “statistical comparison of effects in climbing test (t-test, p<0.05)” value with Swiss male mice (all four doses) is reported as “significantly different from compound 1 but non significantly different from compound 3”. The “inhibition of apomorphine induced climbing (dopamine receptor antagonist in vivo)” value (“inhibition” for short) is on record as “could inhibit apormophine induced climbing in mice” in the series on Swiss male mice (listed as 2) and “act as antidopaminergics in vivo” with Swiss male mice (listed as drawing 7). Also, the entries for the “statistical comparison of effects in catalepsy bar test (t-test, p<0.05)” value in the series with Male SD rats and with Male SD rats (listed as the analog) were “statistically similar to clozapine's” and “significantly different from compound 1 but non significantly different from compound 3”, respectively. The results for the “catalepsy (EPS) in bar test” value in the series on Male SD rats (listed as 2) and in the series with Male SD rats (listed as drawing 7) were “no catalepsy” and “much less severe EPS (manifested as catalepsy in animal models) than haloperidol”, respectively.
In the case of “8-chloro-1-(4-methyl-1-piperazinyl)-5H-dibenzo[b,e]-[1,4]-diazepine [Clozapine (3), reference compound]”, the “inhibition” value in the series with Swiss male mice is reported as “acting as a dopamine receptor antagonist”.
In the case of `O=C(CCCN1CCC(O)(c2ccc(Cl)cc2)CC1)c1ccc(F)cc1` [Haloperidol (1), 4-[4-(4-chlorophenyl)-4-hydroxy-1-piperidinyl]-1-(4-fluorophenyl)-1-butanone, reference compound], the “inhibition” value in the series on Swiss male mice is reported as “acting as a dopamine receptor antagonist”.
